# Data from patent publication US10501447B2, “Imidazolecarboxamides and their use as FAAH inhibitors” (BIAL-PORTELA & Ca, S.A., priority 2013, dated 2019).
# Columns and labels:
# [1] = molecular target: T1, FAAH (Mus musculus, UniProt O08914); assay: FAAH activity in liver homogenate after oral dosing of mice; type: in vivo; settings: for Peripheral Selectivity: FAAH activity in the liver divided by FAAH activity in the brain (3 mg/kg, 8 h, po), lower = peripherally more selective; for activity at 0.1 mg/kg / activity at 1 mg/kg / activity at 0.01 mg/kg / activity at 0.03 mg/kg / activity at 0.3 mg/kg / activity at 3 mg/kg: mouse, po; for activity at 3 mg/kg: liver homogenate, remaining activity vs controls, read-out: FAAH Activity (%) Lv h
# T1 construct: A fragment of liver and brain without cerebellum were removed and put in plastic vials containing membrane buffer; from tissue; host or cells: brain (without cerebellum) and liver homogenates of male NMRI mice
# T1 sequence (O08914 1-579): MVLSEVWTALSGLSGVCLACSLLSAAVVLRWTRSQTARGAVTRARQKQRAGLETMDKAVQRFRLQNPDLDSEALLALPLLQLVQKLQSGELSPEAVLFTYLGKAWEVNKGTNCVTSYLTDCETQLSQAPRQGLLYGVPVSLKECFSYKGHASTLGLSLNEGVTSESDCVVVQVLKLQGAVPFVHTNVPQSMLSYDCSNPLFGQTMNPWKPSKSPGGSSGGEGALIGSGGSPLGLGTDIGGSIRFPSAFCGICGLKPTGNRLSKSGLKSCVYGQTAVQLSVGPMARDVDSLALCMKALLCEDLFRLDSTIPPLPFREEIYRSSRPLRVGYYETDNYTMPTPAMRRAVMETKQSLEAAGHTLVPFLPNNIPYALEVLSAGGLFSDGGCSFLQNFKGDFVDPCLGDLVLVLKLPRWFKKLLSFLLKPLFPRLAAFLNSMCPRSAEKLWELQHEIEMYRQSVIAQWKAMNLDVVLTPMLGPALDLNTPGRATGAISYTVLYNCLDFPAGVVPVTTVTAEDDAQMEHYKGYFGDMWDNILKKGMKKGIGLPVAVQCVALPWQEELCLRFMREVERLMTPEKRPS
# Method: (§1) In vivo testing was performed according to the protocol described below. BRh (brain homogenate) indicates inhibition in central nervous tissue, in this case, brain, and LVh (liver homogenate) indicates inhibition in peripheral tissue, in this case, liver. The controls were the reaction mix minus the test compounds. Therefore, a low value for the test compound indicates a strong inhibitor.
# (§2) The animals used for experiments were male NMRI mice (weighing 27-44 g) obtained from Interfauna Ibérica (Spain). Mice were kept 5 per cage, under controlled environmental conditions (12 hr light/dark cycle and room temperature 22±1° C.). Food and tap water were allowed ad libitum and the experiments were all carried out during daylight hours.
# (§3) Animals were always fasted overnight before administration of compounds.
# (§4) Animals were administered the appropriate dose of the compound of the invention via oral route (8 ml/kg; compound suspended in 0.5% carboxymethylcellulose (CMC) or solubilized in water) or vehicle (controls) using animal feeding stainless steel curve needles (Perfectum, U.S.A.). Fifteen minutes before sacrifice animal were anesthetized with pentobarbital 60 mg/kg administered intraperitoneally. A fragment of liver and brain without cerebellum were removed and put in plastic vials containing membrane buffer (3 mM MgCl2, 1 mM EDTA, 50 mM Tris HCl pH 7.4). Tissues were stored at −30° C. until analysis.
# Anandamide [ethanolamine-1-^3H-] (40-60 Ci/mmol) was obtained from American Radiochemicals. All other reagents were obtained from Sigma-Aldrich. Optiphase Supermix was obtained from Perkin Elmer and activated charcoal was obtained from Sigma-Aldrich.
# Tissues were thawed on ice and were homogenized in 10 volumes of membrane buffer (3 mM MgCl2, 1 mM EDTA, 50 mM Tris HCl pH 7.4) with either Potter-Elvejhem (brains—8 strokes at 500 rpm) or Heidolph Diax (livers—2 strokes at position 5 for 20 sec with 30 sec pauses).
# (§5) Total protein in tissues was determined with the BioRad Protein Assay (BioRad) using a standard curve of BSA (50-250 μg/ml).
# Reaction mix (total volume of 200 μl) contained: 2 μM AEA (2 μM AEA+5 nM ^3H-AEA), 0.1% fatty acid free BSA, 15 μg (brain) or 5 μg (liver) protein, in 1 mM EDTA, 10 mM Tris pH 7.6. After a 15 min pre-incubation period at 37° C., reaction was started by the addition of the substrate solution (cold AEA+radiolabelled AEA+BSA). Reaction was carried out for 10 min (brain) or 7 min (liver) before termination by the addition of 400 μl activated charcoal suspension (8 g charcoal in 32 ml 0.5 M HCl in continuous agitation). After a 30 min incubation period at room temperature with agitation, charcoal was sedimented by centrifugation in microfuge (10 min at 13000 rpm). 200 μl of the supernatant were added to 800 μl Optiphase Supermix scintillation cocktail previously distributed in 24-well plates. Counts per minute (cpm) were determined in a MicrobetaTriLux scintillation counter.
# In each assay blanks (without protein) were prepared.
# (§6) The percentage of remaining enzymatic activity was calculated with respect to controls and after blank subtraction.
# [2] = CYPs metabolic stability assay in HLM; type: in vitro ADME, human; settings: 1 h, 5 μM compound; for Metabolic Stability (% of Remaining) Human CYP+: with NADPH; for Metabolic Stability (% of Remaining) Human CYP−: without NADPH (control value)
# Method: (§7) Stability of the test compounds was performed in MLM (mouse liver microsomes) or HLM (human liver microsomes) in the presence and in the absence of NADPH.
# (§8) The stability was measured using the incubation mixture (100 μl total volume) contained 1 mg/ml total protein, MgCl2 5 mM and 50 mM K-phosphate buffer. Samples were incubated in the presence and in the absence of NADPH 1 mM. Reactions were pre-incubated 5 min and the reaction initiated with the compound under test (5 μM for HLM and 50 μM for MLM). Samples were incubated for 60 min in a shaking water bath at 37° C. The reaction was stopped by adding 100 μl of acetonitrile. Samples were then centrifuged, filtered and supernatant injected in HLPC-MSD. Test compounds were dissolved in DMSO and the final concentration of DMSO in the reaction was below 0.5% (v/v). At T0 acetonitrile was added before adding the compound. All experiments were performed with samples in duplicate.
# (§9) The stability data are given as % of remaining compound after 1 h exposure to MLM or HLM. 100% means no metabolic reaction at all and 0% corresponds to full enzymatic degradation. “CYP−” refers to the absence of cofactor (NADPH) which is essential for CYP metabolic reactions. Therefore “CYP−” can be regarded as control value. “CYP+” refers to the presence of cofactor and the enzymatic degradation may take place according to the stability of the test compound.
# [3] = CYPs metabolic stability assay in MLM; type: in vitro ADME, mouse; settings: 1 h, 50 μM compound; for Metabolic Stability (% of Remaining) Mouse CYP+: with NADPH; for Metabolic Stability (% of Remaining) Mouse CYP−: without NADPH (control value)
# Method: as §7, §8, §9
# [4] = molecular target: T2, FAAH (Rattus norvegicus, UniProt P97612); assay: FAAH activity in liver homogenate after oral dosing of rats; type: in vivo; settings: gavage; for activity at 0.1 mg/kg: rat, po
# T2 construct: Liver biopsies and brain samples (without cerebellum) were collected and placed in a plastic vial containing membrane buffer; from tissue; host or cells: liver homogenate of male Wistar rats
# T2 sequence (P97612 1-579): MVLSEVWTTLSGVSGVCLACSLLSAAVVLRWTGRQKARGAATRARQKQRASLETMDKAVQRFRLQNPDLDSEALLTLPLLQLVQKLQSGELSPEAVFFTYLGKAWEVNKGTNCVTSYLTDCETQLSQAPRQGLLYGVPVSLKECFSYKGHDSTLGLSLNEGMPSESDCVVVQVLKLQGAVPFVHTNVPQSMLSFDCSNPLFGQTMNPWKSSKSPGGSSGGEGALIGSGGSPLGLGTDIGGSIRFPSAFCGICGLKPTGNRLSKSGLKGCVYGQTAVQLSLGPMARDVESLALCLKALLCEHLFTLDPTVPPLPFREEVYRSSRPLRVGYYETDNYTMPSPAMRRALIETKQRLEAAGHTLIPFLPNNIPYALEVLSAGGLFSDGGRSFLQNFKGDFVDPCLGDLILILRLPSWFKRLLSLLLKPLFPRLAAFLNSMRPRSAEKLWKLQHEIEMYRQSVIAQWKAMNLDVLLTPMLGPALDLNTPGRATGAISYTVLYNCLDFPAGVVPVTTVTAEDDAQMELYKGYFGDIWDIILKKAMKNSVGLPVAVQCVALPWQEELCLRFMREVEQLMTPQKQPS
# Method: as §1
# Male Wistar rats (body weight range: 190-230 g) were obtained from Harlan (Spain). Rats were kept 5 per cage, under controlled environmental conditions (12 hr light/dark cycle and room temperature 22±1° C.). Food and tap water were allowed ad libitum and the experiments were all carried out during daylight hours.
# Rats were administered the appropriate dose of compound of the invention via gavage (administration volume=4 ml/kg body weight) using animal feeding stainless steel curve needles (Perfectum, U.S.A.). Vehicle was 0.5% CMC in Milli Q water. Rats were fasted at least 15 h before experiments.
# Fifteen minutes before sacrifice animals were anesthetized with pentobarbital i.p. 60 mg/kg body weight. Liver biopsies and brain samples (without cerebellum) were collected and placed in a plastic vial containing membrane buffer (3 mM MgCl2, 1 mM EDTA, 50 mM Tris HCl pH 7.4) and, in the case of liver samples, glass beads (2.5 mm BioSpec Products). Tissues were stored at −20° C. until analysis.
# Anandamide [ethanolamine-1-3H-] was obtained from American Radiochemicals (specific activity of 60 Ci/mmol). All other reagents were obtained from Sigma-Aldrich. Optiphase Supermix was obtained from Perkin Elmer.
# Tissues were thawed on ice; livers were homogenized in a Precellys 24 Dual Tissue Homogenizer (Bertin Technologies) for 2 cycles of 5 sec with an interval of 5 min in ice and brains were homogenized with Heidolph Silent Crusher M (probe 8 F/M) for about 45 sec at maximum velocity. Total protein in homogenates was determined with the BioRad Protein Assay (BioRad) using a standard curve of BSA (50-250 μg/ml).
# Reaction mix (total volume of 200 μl) contained: 2 μM AEA (2 μM AEA+5 nM 3H-AEA), 0.1% fatty acid free BSA, 15 μg (brain) or 1.5 μg (liver) protein, in 1 mM EDTA, 10 mM Tris pH 7.6. After 15 minutes pre-incubation at 37° C. reaction was started by the addition of the substrate solution (cold AEA+radiolabelled AEA+BSA). Reaction was carried out for 7 minutes for liver samples and for 10 min for brain samples and terminated by addition of 400 μL chloroform:methanol (1:1, v/v) solution. Reaction samples were vortex twice, left on ice for 5 minutes and then centrifuged in microfuge (7 minutes, 7000 rpm). Two-hundred μl of supernatants were added to 800 μl Optiphase Supermix scintillation cocktail previously distributed in 24-well plates. Counts per minute (cpm) were determined in a Microbeta TriLux scintillation counter. In each assay blank samples (without protein) were prepared. The percentage of remaining enzymatic activity was calculated in respect to controls and after blank subtraction.
# [5] = molecular target: T1, FAAH; assay: FAAH activity in brain homogenate after oral dosing of mice; type: in vivo; settings: 8 h, remaining activity vs controls, low value = strong inhibitor, read-out: FAAH Activity (%) Br h
# Method: as §1, §2, §3, §4
# Anandamide [ethanolamine-1-^3H-] (40-60 Ci/mmol) was obtained from American Radiochemicals. All other reagents were obtained from Sigma-Aldrich. […]
# as §5
# Reaction mix (total volume of 200 μl) contained: 2 μM AEA (2 μM AEA+5 nM ^3H-AEA), 0.1% fatty acid free BSA, 15 μg (brain) or 5 μg (liver) protein, in 1 mM EDTA, 10 mM Tris pH 7.6. […] Counts per minute (cpm) were determined in a MicrobetaTriLux scintillation counter. […]
# as §6
Peripheral Selectivity [1],activity at 0.1 mg/kg ([1]; 1 h),activity at 1 mg/kg ([1]; 1 h),activity at 0.01 mg/kg ([1]; 8 h),activity at 0.03 mg/kg ([1]; 8 h),activity at 0.1 mg/kg ([1]; 8 h),activity at 0.3 mg/kg ([1]; 8 h),activity at 3 mg/kg ([1]; 8 h),melting point,Metabolic Stability (% of Remaining) Human CYP+ [2],Metabolic Stability (% of Remaining) Human CYP− [2],Metabolic Stability (% of Remaining) Mouse CYP+ [3],Metabolic Stability (% of Remaining) Mouse CYP− [3],"FAAH Activity (%) rat Liver ([4]; Dose: 1 mg/k9, 1 h)","FAAH Activity (%) rat Liver ([4]; Dose: 1 mg/k9, 8 h)","FAAH Activity (%) rat Liver ([4]; Dose: 1 mg/k9, 24 h)",activity at 0.1 mg/kg ([4]; 1 h),activity at 0.1 mg/kg ([4]; 8 h),activity at 3 mg/kg [5],Compound
0.018,21.9%,2.3%,48.2%,42.9%,6.7%,5.6%,1.5%,232 °C,100%,94%,86%,83%,25.7%,18.2%,17.8%,78.2%,59.1%,81.7%,"CCC(=O)N1CCC(N(C)C(=O)n2cnc(-c3ccc(O)c(C)c3)c2)CC1 [Compound 2, 4-(4-Hydroxy-3-methylphenyl)-N-methyl-N-(1-propionylpiperidin-4-yl)-1H-imidazole-1-carboxamide]"
0.020,37.9%,–,56.3%,53%,10.7%,7.2%,1.8%,204 °C,99%,102%,98%,91%,–,–,–,83.5%,62.5%,91.7%,"Cc1cc(-c2cn(C(=O)N(C)C3CCN(C(=O)C4CC4)CC3)cn2)ccc1O [Compound 3, N-(1-(Cyclopropanecarbonyl)piperidin-4-yl)-4-(4-hydroxy-3-methylphenyl)-N-methyl-1H-imidazole-1-carboxamide]"
0.042,–,8.5%,–,–,–,36.1%,4.9%,128 °C,96%,102%,93%,100%,9.8%,4.8%,22.7%,–,–,117%,"CN(C(=O)n1cnc(-c2cccc(NS(N)(=O)=O)c2)c1)C1CCOCC1 [Compound 1, N-Methyl-4-(3-(sulfamoylamino)phenyl)-N-(tetrahydro-2H-pyran-4-yl)-1H-imidazole-1-carboxamide]"
